Source: the supplement of paper PMC4862054

What was measured:
Conditions in all cases: incubation time: 72 h
BT-474 = experiment: drug sensitivity score (DSS), CellTiter-Glo (DSS (AUC-based score)); higher = stronger drug effect (viability inhibition or cytotoxicity); extreme values may be limits of the assay
How it was run: (§1)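 Normalisation on every plate relied on 0.1 % DMSO and a positive kill control. The plates, 384-well format, held compound at 5 concentrations 10-fold apart across a compound-specific 10,000-fold range, and breast cancer cell lines in 20 µl suspension were incubated on them for 72 h before CellTox Green and then CellTiter-Glo readings. The drug sensitivity score derives from the area under the fitted dose-response curve.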

BT-549 = experiment: as above
How it was run: as §1

CAL-120 = experiment: as above
How it was run: as §1

CAL-148 = experiment: as above
How it was run: as §1

CAL-51 = experiment: as above
How it was run: as §1

DU-4475 [1] = experiment: as above
How it was run: as §1

HCC1143 [2] = experiment: as above
How it was run: as §1

HCC1599 [3] = experiment: as above
How it was run: as §1

HCC1937 [4] = experiment: as above
How it was run: as §1

HDQ-P1 = experiment: as above
How it was run: as §1

Hs578T [5] = experiment: as above
How it was run: as §1

MCF-10A = experiment: as above
How it was run: as §1

MDA-MB-231 [6] = experiment: as above
How it was run: as §1

MDA-MB-436 = experiment: as above
How it was run: as §1

MDA-MB-453 [7] = experiment: as above
How it was run: as §1

MDA-MB-468 = experiment: as above
How it was run: as §1

MFM-223 [8] = experiment: as above
How it was run: as §1

SK-BR-3 = experiment: as above
How it was run: as §1

CAL-85-1 = experiment: drug sensitivity score (DSS), CellTox Green (DSS (AUC-based score)); higher = stronger drug effect (viability inhibition or cytotoxicity); extreme values may be limits of the assay
How it was run: as §1

DU-4475 [9] = experiment: as above
How it was run: as §1

HCC1143 [10] = experiment: as above
How it was run: as §1

HCC1599 [11] = experiment: as above
How it was run: as §1

HCC1937 [12] = experiment: as above
How it was run: as §1

Hs578T [13] = experiment: as above
How it was run: as §1

MDA-MB-231 [14] = experiment: as above
How it was run: as §1

MDA-MB-453 [15] = experiment: as above
How it was run: as §1

MFM-223 [16] = experiment: as above
How it was run: as §1

Compound	drug sensitivity score (BT-474)	drug sensitivity score (BT-549)	drug sensitivity score (CAL-120)	drug sensitivity score (CAL-148)	drug sensitivity score (CAL-51)	drug sensitivity score (DU-4475 [1])	drug sensitivity score (HCC1143 [2])	drug sensitivity score (HCC1599 [3])	drug sensitivity score (HCC1937 [4])	drug sensitivity score (HDQ-P1)	drug sensitivity score (Hs578T [5])	drug sensitivity score (MCF-10A)	drug sensitivity score (MDA-MB-231 [6])	drug sensitivity score (MDA-MB-436)	drug sensitivity score (MDA-MB-453 [7])	drug sensitivity score (MDA-MB-468)	drug sensitivity score (MFM-223 [8])	drug sensitivity score (SK-BR-3)	drug sensitivity score (CAL-85-1)	drug sensitivity score (DU-4475 [9])	drug sensitivity score (HCC1143 [10])	drug sensitivity score (HCC1599 [11])	drug sensitivity score (HCC1937 [12])	drug sensitivity score (Hs578T [13])	drug sensitivity score (MDA-MB-231 [14])	drug sensitivity score (MDA-MB-453 [15])	drug sensitivity score (MFM-223 [16])
CCS(=O)(=O)c1cccc(-c2cc(C(=O)NC3CCN(C)CC3)c(C)c3[nH]c4ncc(C)cc4c23)c1 [TAK-901]	6.57	6.76	4.67	0	0	0	4.84	0	0	3.52	1.14	7.18	7.63	2.45	0	12.3	5.76	0	0	0	0	0	0	0	3.45	0	0
COc1cc(Nc2ncc(F)c(Nc3ccc4c(n3)NC(=O)C(C)(C)O4)n2)cc(OC)c1OC [Tamatinib]	0	4.09	0	0	2.11	0	0	0	0	0	0	0	0	0	0	0	0	0	0	0	0	0	0	0	0	0	0
C[C@@H]1CCN(C(=O)CC#N)C[C@@H]1N(C)c1ncnc2[nH]ccc12 [Tofacitinib]	0	0	0	0	5	0	0	0	0	0	0	0	0	0	0	0	0	0	0	0	0	0	0	0	0	0	0
CCCC(CCC)C(=O)O [Valproic acid]	0	0	0	0	1.6	0	0	0	0	0	0	0	0	0	1.51	0	0	0	0	0	0	0	0	0	0	0	0
FC(F)c1nc2ccccc2n1-c1nc(N2CCOCC2)nc(N2CCOCC2)n1 [ZSTK474]	6.3	13.1	7.92	6.71	11.6	1.87	6.07	2.33	6.46	10.8	11.3	10.9	7.99	9.24	12.9	8.61	9.3	15.3	0	0	0	0	0	0	0	0	3.44
